Format in all cases: in vivo
Series [1] can be described thus: Phase I/II first-in-human study CBLZ945X2101: adverse events. The source says:
The purpose of this first-in-human (FIH) study of BLZ945 given as a single agent or in combination with spartalizumab is to characterize the safety, tolerability, pharmacokinetics (PK), pharmacodynamics, and anti-tumor activity of BLZ945, administered orally, as a single agent or in combination with spartalizumab, administered intravenously (i.v.) in adult patients with advanced solid tumors.
This study is a FIH, open-label, multi-center, phase I/II, study which consists of a phase I dose escalation part of BLZ945 as single agent (including a separate Japanese BLZ945 single agent dose escalation arm) and in combination with spartalizumab. Alternative dosing regimens of BLZ945 may be evaluated. BLZ945 is being administered orally, and spartalizumab is being administered i.v. every four weeks until patient experiences unacceptable toxicity, progressive disease and/or treatment is discontinued at the discretion of the Investigator or the patient.
BLZ945 dosing is being evaluated on the following schedules, 7 days on/7 days off (i.e., administer BLZ945 every day for 7 days and suspend for 7 days), once weekly (Q1W), and 4 days on/10 days off (i.e., administer BLZ945 every day for 4 days and suspend for 10 days). For each of these schedules, once per day (OD) or twice per day (BID) dosing may be evaluated. For once daily administration, patients should take their dose at approximately the same time in the morning. For the twice a day dosing, the first dose should be taken in the morning and the second dose should be taken approximately 10 to 12 hours after the morning dose.
All patients treated with either BLZ945 single agent or in combination with spartalizumab will begin study treatment on Cycle 1 Day 1. Each cycle will consist of 28 days. […]
As mentioned above, nausea, vomiting have been commonly observed to occur with single-agent administration of BLZ945 in the first-in-human trial (CBLZ945X2101). […] An additional cohort to evaluate 7 days on may also be evaluated.

The subject of another series is CSF-1R. The series can be described thus: Mouse CSF-1 levels in plasma as biomarker for CSF-1R inhibition (MC38 model). The conditions noted are these: BLZ945 4 days on/3 days off, vs vehicle. As for the experimental part:
In order to measure increase of CSF1 in the plasma as a biomarker for CSF-1R inhibition blood sampling was performed at baseline and 6 hours later on indicated days (FIG. 4).
Mouse CSF-1 levels in plasma. A. Changes in CSF-1 levels over time in the different treatment groups. B. Statistical analysis of CSF-1 levels in vehicle vs. BLZ945 4 days on/3 days off and in vehicle vs. BLZ945 4 days on/3 days off in combination with anti-PD-1. Statistical significance was calculated using a two-tailed, unpaired, non-parametric Mann-Whitney Test was performed to compare treatment to control groups.

A further series deals with SOD1G93A ALS mouse. The series can be described thus: Body weight, grip strength and CMAP in the SOD1G93A ALS mouse, 8-week study (RD-2019-00092). As for the experimental part:
BLZ945 was dosed over an 8-week period in a mouse model of ALS (in house data). BLZ945 was tested for efficacy in preventing or delaying disease progression in the SOD1G93A ALS mouse (RD-2019-00092). […] Normal body weight gain is also impaired in this model. These physiological impairments are considered as mechanistic readouts given that they best recapitulate the clinical disease phenotype (Turner et al 2013). Animals were dosed from 8 to 16 weeks of age with daily (q.d) doses of BLZ945 at either 65 mg/kg, 170 mg/kg, or 170 mg/kg delivered intermittently with a 7 day ON/7 day OFF regimen.
FIG. 12: The effect of BLZ945 on body weight change over the eight-week study period. Data are presented as the percentage of body weight change relative to the first dosing day. Values are group means ([…]). Statistical analysis was by mixed linear effect model for repeated measures. * p<0.05; ** p<0.01; **** p<0.0001.
Hind limb grip strength and compound muscle action potentials (CMAP), an assessment of neuromuscular integrity, were measured as mechanistic readouts. In grip strength measurements, SOD1 G93A mice lost muscle force continuously after the 8th week of age. […] This was intermediate to the vehicle-treated SOD1 G93A and NCAR controls (FIG. 13 A). […] However, CMAPs were still lower than those of NCAR animals from study week 4 onward.
FIG. 13: (A) The effect of BLZ945 on grip strength over the eight-week study period. Values are group means±SD (n=12-15). Statistical analysis was by mixed linear effect model for repeated measures. * p<0.05; ** p<0.01; *** p<0.001. (B) The effect of BLZ945 on TA muscle CMAP over the eight-week study period. Values are group means±SD (n=12-15). Statistical analysis was by mixed linear effect model for repeated measures. * […]; ** p<0.01; *** p<0.001.

A further series concerns Soluble TREM2. The series can be described thus: Soluble TREM2 in plasma and CSF, 13-wk cynomolgus monkey study (1779034). The conditions noted are these: for TREM2 plasma values: 7 days-on 7 days-off, mid- and high-doses; for decrease of soluble TREM2 in CSF: high dose. How it is done: In a preclinical 13-wk study (Study number 1779034), cynomolgus monkey were treated with 30, 60 and 200 mg/kg/day BLZ945 on daily oral dosing or at 60 and 200 mg/kg/day on 7 days-on and 7 days-off treatment cycles. With either regimen, the dosing period was for 91 days followed by a drug-free period up to a total of […]. Plasma was collected at pre-dose, during the dosing period at different time points and during the recovery time, and CSF was collected at necropsy at end of dosing and recovery periods. Soluble TREM2, a biomarker of microglial activation, was measured in plasma and CSF.

The structures appear in SMILES notation.

With `CNC(=O)c1cc(Oc2ccc3nc(N[C@@H]4CCCC[C@H]4O)sc3c2)ccn1` [BLZ945, 4-((2-(((1R,2R)-2-hydroxycyclohexyl)amino)benzo[d]thiazol-6-yl)oxy)-N-methylpicolinamide], the “most frequently reported AEs (>10%) suspected to be related to treatment” value in series [1] (in vivo) is “aspartate aminotransferase (AST) increased, nausea, vomiting, alanine aminotransferase (ALT) increased, fatigue, amylase increased, blood creatine phosphokinase increased and decreased appetite”. In addition, the serum enzyme elevation entry in series [1] (in vivo) was “Asymptomatic serum enzyme elevation including AST, ALT, CK and alkaline phosphatase elevations”. Moreover, the “suspected SAEs (grade and kind)” value in series [1] (single agent arm, combination arm) was “Grade 3 AST increased, Grade 3 asthenia and Grade 4 sudden death”. Besides, the CSF-1 plasma levels result in the series on CSF-1R is listed as “statistically significant increase”. Besides, the “tibialis anterior muscle CMAP” value is “significantly higher CMAPs than untreated controls until week 6” in the series on SOD1G93A ALS mouse (65 mg/kg) and “significantly reduced decline in CMAPs throughout the study period” in the series on SOD1G93A ALS mouse (170 mg/kg, continuous or intermittent dosing). Further, the “body weight gain at end of study” value in the series with SOD1G93A ALS mouse (65 mg/kg and 170 mg/kg 7 days on/7 days off groups, NCAR approx. 16%, vehicle approx. 7%) is given as “approximately 12%”. For the same compound, the “hind limb grip strength” value in the series on SOD1G93A ALS mouse (65 mg/kg, vs vehicle-treated SOD1 G93A controls, up to week 6 of dosing) is given as “significantly higher grip strength”; in the series on SOD1G93A ALS mouse (170 mg/kg, continuously or intermittently, vs vehicle-treated SOD1 G93A) it was “maintained significantly greater grip force throughout the study period”. Also, the body weight gain entry in the series on SOD1G93A ALS mouse (170 mg/kg continuously, 8 weeks) is “constant weight gain at the same rate as NCAR mice”. For the same compound, the values for the TREM2 plasma values result in the series with Soluble TREM2 (end of off-treatment week) and in the series on Soluble TREM2 (end of on-treatment weeks) were “in the range of control values at end of off-treatment week” and “decreased at end of on-treatment weeks”, respectively. Also, the “decrease of soluble TREM2 in CSF” value in the series on Soluble TREM2 (continuous dosing 3 months) is “about 25 fold”; in the series with Soluble TREM2 (on-off dosing 3 months), “about 4.6 fold”. Further, the “time for plasma TREM2 to return to baseline after cessation of dosing” value with Soluble TREM2 (continuous dosing regimen) was not above 7 days. The “soluble TREM2 values at end of recovery phase” value with Soluble TREM2 (high daily and high on/off treatment groups) is listed as “returned to that of untreated controls”. Further, the “plasma TREM2, remaining” value with Soluble TREM2 (mid-continuous (60 mg/kg/day) and high continuous (200 mg/kg/day) daily oral dosing) is given as 40-45 % of the predose value.

The values are drawn from patent US20230172920A1, “DOSING REGIMEN FOR TREATING A DISEASE MODULATED BY CSF-1R” (Novartis AG, priority 2020, published 2023).
